Legend:
[1] = molecular target: Human α2δ-1 subunit of Cav2.2 calcium channel (Homo sapiens, UniProt P54289); test: Human α2δ-1 subunit of Cav2.2 calcium channel assay ([3H]-gabapentin binding); settings: binding to the α2δ-1 subunit of voltage-gated calcium channels expressed as Ki; + also covers inhibition between 1% and 50%
In short: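 Membranes enriched in human α2δ-1 incubated with 15 nM [3H]-gabapentin in 10 mM Hepes-KOH pH 7.4, 60 min at 27 °C; nonspecific binding defined with 10 μM pregabalin. Filtration and scintillation counting; % inhibition at 1 or 10 μM, or Ki from five concentrations.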

Human σ1 receptor = molecular target: T1, Human σ1 receptor (Homo sapiens, UniProt Q99720); test: Human σ1 receptor radioligand assay ([3H](+)-pentazocine binding, transfected HEK-293 membranes); settings: binding to σ1 receptor expressed as Ki; + also covers inhibition between 1% and 50%; read-out: σ-1 binding
T1 construct: expressed in transfected cells; host or cells: HEK-293
T1 sequence (Q99720 whole entry): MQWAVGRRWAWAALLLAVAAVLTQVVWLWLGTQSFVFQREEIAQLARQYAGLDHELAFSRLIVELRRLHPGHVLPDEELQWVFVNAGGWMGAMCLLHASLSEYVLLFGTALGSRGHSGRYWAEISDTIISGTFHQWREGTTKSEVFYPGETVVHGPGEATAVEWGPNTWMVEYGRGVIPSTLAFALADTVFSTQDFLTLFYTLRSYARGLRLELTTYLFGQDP
In short: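 Membranes (7 μg) were incubated with 5 nM [3H](+)-pentazocine in 50 mM Tris-HCl pH 8 for 120 min at 37° C. Non-specific binding was defined with 10 μM haloperidol. Values are % inhibition at 1 or 10 μM or Ki from five concentrations, read by filtration and scintillation counting.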

Human α2δ-1 subunit of Cav2.2 calcium channel, sequence (P54289 25-1103): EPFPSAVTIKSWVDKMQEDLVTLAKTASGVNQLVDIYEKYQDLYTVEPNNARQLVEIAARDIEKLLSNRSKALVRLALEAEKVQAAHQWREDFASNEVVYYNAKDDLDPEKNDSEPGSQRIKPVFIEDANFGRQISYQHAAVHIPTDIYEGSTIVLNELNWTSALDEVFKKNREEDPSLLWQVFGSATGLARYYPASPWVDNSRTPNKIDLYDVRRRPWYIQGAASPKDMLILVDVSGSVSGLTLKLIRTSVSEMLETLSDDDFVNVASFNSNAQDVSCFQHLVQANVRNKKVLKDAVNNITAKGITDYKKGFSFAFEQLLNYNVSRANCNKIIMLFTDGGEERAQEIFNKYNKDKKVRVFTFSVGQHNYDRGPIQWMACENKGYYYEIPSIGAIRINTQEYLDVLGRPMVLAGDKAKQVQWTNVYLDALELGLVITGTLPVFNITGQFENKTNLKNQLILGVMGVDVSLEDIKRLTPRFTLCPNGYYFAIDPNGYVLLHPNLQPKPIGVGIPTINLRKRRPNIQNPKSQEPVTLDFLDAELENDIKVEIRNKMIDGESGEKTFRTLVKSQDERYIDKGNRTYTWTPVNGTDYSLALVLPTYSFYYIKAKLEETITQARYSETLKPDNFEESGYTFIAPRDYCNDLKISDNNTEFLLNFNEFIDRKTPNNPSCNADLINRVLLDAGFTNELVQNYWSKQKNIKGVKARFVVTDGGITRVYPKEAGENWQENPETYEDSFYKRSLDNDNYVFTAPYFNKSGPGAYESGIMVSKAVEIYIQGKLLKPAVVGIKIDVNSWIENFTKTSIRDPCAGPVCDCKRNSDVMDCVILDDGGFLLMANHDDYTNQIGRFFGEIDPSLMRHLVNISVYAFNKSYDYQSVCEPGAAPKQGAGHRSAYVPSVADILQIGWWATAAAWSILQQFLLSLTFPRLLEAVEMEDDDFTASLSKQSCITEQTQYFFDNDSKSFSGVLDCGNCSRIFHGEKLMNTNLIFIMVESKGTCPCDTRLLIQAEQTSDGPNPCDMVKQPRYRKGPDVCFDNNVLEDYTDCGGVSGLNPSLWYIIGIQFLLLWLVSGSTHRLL

Ki [1] [µM] | Ki (Human σ1 receptor) [nM] | SMILES
< 0.5 | < 500 | Cc1nn2c([C@H]3CCCN(Cc4ccc(Cl)cc4)C3)ccnc2c1CNCC1CCOCC1 [Example 199, (S)-1-(7-(1-(4-Chlorobenzyl)piperidin-3-yl)-2-methylpyrazolo[1,5-a]pyrimidin-3-yl)-N-((tetrahydro-2H-pyran-4-yl)methyl)methanamine]
> 5 | < 500 | Cc1nn2c([C@@H]3CCCN(Cc4ccc(Cl)cc4)C3)ccnc2c1CNCC1CCOCC1 [Example 200, (R)-1-(7-(1-(4-chlorobenzyl)piperidin-3-yl)-2-methylpyrazolo[1,5-a]pyrimidin-3-yl)-N-((tetrahydro-2H-pyran-4-yl)methyl)methanamine]
< 0.5 | < 500 | Cc1nn2c([C@@H]3CCCN(Cc4ccc(Cl)cc4)C3)ccnc2c1CNC[C@H]1CCOC1 [Example 202, 1-(7-((R)-1-(4-chlorobenzyl)piperidin-3-yl)-2-methylpyrazolo[1,5-a]pyrimidin-3-yl)-N—(((R)-tetrahydrofuran-3-yl)methyl)methanamine]
0.5 to 5 | < 500 | Cc1nn2c([C@H]3CCCN(Cc4ccc(Cl)cc4)C3)ccnc2c1CNC[C@@H]1CCOC1 [Example 203, 1-(7-((S)-1-(4-chlorobenzyl)piperidin-3-yl)-2-methylpyrazolo[1,5-a]pyrimidin-3-yl)-N—(((S)-tetrahydrofuran-3-yl)methyl)methanamine]
0.5 to 5 | < 500 | Cc1nn2c([C@H]3CCCN(Cc4ccccc4)C3)ccnc2c1CNCC1CCOCC1 [Example 204, (S)-1-(7-(1-Benzylpiperidin-3-yl)-2-methylpyrazolo[1,5-a]pyrimidin-3-yl)-N-((tetrahydro-2H-pyran-4-yl)methyl)methanamine]
> 5 | < 500 | Cc1nn2c([C@@H]3CCCN(Cc4ccccc4)C3)ccnc2c1CNCC1CCOCC1 [Example 205, (R)-1-(7-(1-benzylpiperidin-3-yl)-2-methylpyrazolo[1,5-a]pyrimidin-3-yl)-N-((tetrahydro-2H-pyran-4-yl)methyl)methanamine]
< 0.5 | < 500 | Cc1nn2c([C@H]3CCCN(Cc4ccc(F)cc4)C3)ccnc2c1CNCC1CCOCC1 [Example 206, (S)-1-(7-(1-(4-Fluorobenzyl)piperidin-3-yl)-2-methylpyrazolo[1,5-a]pyrimidin-3-yl)-N-((tetrahydro-2H-pyran-4-yl)methyl)methanamine]
> 5 | < 500 | Cc1nn2c([C@@H]3CCCN(Cc4ccc(F)cc4)C3)ccnc2c1CNCC1CCOCC1 [Example 207, (R)-1-(7-(1-(4-fluorobenzyl)piperidin-3-yl)-2-methylpyrazolo[1,5-a]pyrimidin-3-yl)-N-((tetrahydro-2H-pyran-4-yl)methyl)methanamine]
> 5 | < 500 | Cc1nn2c([C@H]3CCCN(Cc4cccc(C#N)c4)C3)ccnc2c1CNCC1CCOCC1 [Example 208, (S)-3-((3-(2-Methyl-3-((((tetrahydro-2H-pyran-4-yl)methyl)amino)methyl)pyrazolo[1,5-a]pyrimidin-7-yl)piperidin-1-yl)methyl)benzonitrile]
> 5 | < 500 | Cc1nn2c([C@@H]3CCCN(Cc4cccc(C#N)c4)C3)ccnc2c1CNCC1CCOCC1 [Example 209, (R)-3-((3-(2-methyl-3-((((tetrahydro-2H-pyran-4-yl)methyl)amino)methyl)pyrazolo[1,5-a]pyrimidin-7-yl)piperidin-1-yl)methyl)benzonitrile]
> 5 | < 500 | Cc1nn2c([C@@H]3CCCN(Cc4ccc(Cl)cc4)C3)ccnc2c1CN(C)C [Example 211, (R)-1-(7-(1-(4-chlorobenzyl)piperidin-3-yl)-2-methylpyrazolo[1,5-a]pyrimidin-3-yl)-N,N-dimethylmethanamine]
> 5 | < 500 | CNCc1c(C)nn2c([C@@H]3CCCN(Cc4ccc(Cl)cc4)C3)ccnc12 [Example 212, (R)-1-(7-(1-(4-Chlorobenzyl)piperidin-3-yl)-2-methylpyrazolo[1,5-a]pyrimidin-3-yl)-N-methylmethanamine]
0.5 to 5 | < 500 | CNCc1c(C)nn2c([C@H]3CCCN(Cc4ccc(Cl)cc4)C3)ccnc12 [Example 213, (S)-1-(7-(1-(4-chlorobenzyl)piperidin-3-yl)-2-methylpyrazolo[1,5-a]pyrimidin-3-yl)-N-methylmethanamine]
0.5 to 5 | < 500 | Clc1nn2c([C@H]3CCCN(Cc4ccccc4)C3)ccnc2c1CNCC1CCOCC1 [Example 214]
> 5 | < 500 | Clc1nn2c([C@@H]3CCCN(Cc4ccccc4)C3)ccnc2c1CNCC1CCOCC1 [Example 215]
< 0.5 | < 500 | CC(=O)N1CCC(CNCc2c(Cl)nn3c([C@H]4CCCN(Cc5ccccc5)C4)ccnc23)CC1 [Example 216, (S)-1-(4-((((7-(1-Benzylpiperidin-3-yl)-2-chloropyrazolo[1,5-a]pyrimidin-3-yl)methyl)amino)methyl)piperidin-1-yl)ethan-1-one]
0.5 to 5 | 500 to 1000 | Cc1nn2c(C3CCCN(Cc4ccc(Cl)cc4)C3)ccnc2c1CNCC1CCN(C(N)=O)CC1 (stereo not drawn) [Example 218, 4-((((7-(1-(4-Chlorobenzyl)piperidin-3-yl)-2-methylpyrazolo[1,5-a]pyrimidin-3-yl)methyl)amino)methyl)piperidine-1-carboxamide]
0.5 to 5 | 500 to 1000 | Cc1nn2c(C3CCCN(Cc4ccc(Cl)cc4)C3)ccnc2c1CN (stereo not drawn) [Example 219, (7-(1-(4-Chlorobenzyl)piperidin-3-yl)-2-methylpyrazolo[1,5-a]pyrimidin-3-yl)methanamine]
0.5 to 5 | 500 to 1000 | Cc1nn2c(C3CCCN(Cc4ccccc4)C3)ccnc2c1CNCC1C[C@@H](C)O[C@@H](C)C1 (stereo partly drawn) [Example 220, 1-(7-(1-Benzylpiperidin-3-yl)-2-methylpyrazolo[1,5-a]pyrimidin-3-yl)-N-(((2R,6S)-2,6-dimethyltetrahydro-2H-pyran-4-yl)methyl)methanamine]
> 5 | < 500 | Cc1nn2c([C@@H]3CCCN(Cc4ccc(Cl)cc4)C3)ccnc2c1CNC[C@H]1CCOC(C)(C)C1 [Example 222]
> 5 | < 500 | Cc1nn2c([C@H]3CCCN(Cc4ccc(Cl)cc4)C3)ccnc2c1CNC[C@@H]1CCOC(C)(C)C1 [Example 223]
> 5 | < 500 | Cc1nn2c([C@@H]3CCCN(Cc4ccc(Cl)cc4)C3)ccnc2c1CN[C@@H](C)C1CCOCC1 [Example 225, (S)—N-((7-((R)-1-(4-chlorobenzyl)piperidin-3-yl)-2-methylpyrazolo[1,5-a]pyrimidin-3-yl)methyl)-1-(tetrahydro-2H-pyran-4-yl)ethan-1-amine]
0.5 to 5 | < 500 | Cc1nn2c([C@H]3CCCN(Cc4ccc(Cl)cc4)C3)ccnc2c1CN[C@H](C)C1CCOCC1 [Example 226, (R)—N-((7-((S)-1-(4-chlorobenzyl)piperidin-3-yl)-2-methylpyrazolo[1,5-a]pyrimidin-3-yl)methyl)-1-(tetrahydro-2H-pyran-4-yl)ethan-1-amine]
> 5 | < 500 | Cc1nn2c([C@@H]3CCCN(Cc4ccc(Cl)cc4)C3)ccnc2c1CN(C)CC1CC1 [Example 227, (R)-1-(7-(1-(4-Chlorobenzyl)piperidin-3-yl)-2-methylpyrazolo[1,5-a]pyrimidin-3-yl)-N-(cyclopropylmethyl)-N-methylmethanamine]

— patent US12617797B2, “Substituted pyrazolo [1,5-a]pyrimidines having multimodal activity against pain” (ESTEVE PHARMACEUTICALS, S.A., priority 2020, dated 2026)
